Experimental findings from patent publication US8034940B2, “Modulators of glucocorticoid receptor, AP-1, and/or NF-κB activity and use thereof” (Bristol-Myers Squibb Company, priority 2006, dated 2011) are described below.

In general, Ki refers to a measure of affinity in units of concentration, obtained from inhibition or displacement.

Assay [1] deals with T1, human full-length glucocorticoid receptor (Homo sapiens, UniProt P04150).
T1 sequence (P04150 1-777): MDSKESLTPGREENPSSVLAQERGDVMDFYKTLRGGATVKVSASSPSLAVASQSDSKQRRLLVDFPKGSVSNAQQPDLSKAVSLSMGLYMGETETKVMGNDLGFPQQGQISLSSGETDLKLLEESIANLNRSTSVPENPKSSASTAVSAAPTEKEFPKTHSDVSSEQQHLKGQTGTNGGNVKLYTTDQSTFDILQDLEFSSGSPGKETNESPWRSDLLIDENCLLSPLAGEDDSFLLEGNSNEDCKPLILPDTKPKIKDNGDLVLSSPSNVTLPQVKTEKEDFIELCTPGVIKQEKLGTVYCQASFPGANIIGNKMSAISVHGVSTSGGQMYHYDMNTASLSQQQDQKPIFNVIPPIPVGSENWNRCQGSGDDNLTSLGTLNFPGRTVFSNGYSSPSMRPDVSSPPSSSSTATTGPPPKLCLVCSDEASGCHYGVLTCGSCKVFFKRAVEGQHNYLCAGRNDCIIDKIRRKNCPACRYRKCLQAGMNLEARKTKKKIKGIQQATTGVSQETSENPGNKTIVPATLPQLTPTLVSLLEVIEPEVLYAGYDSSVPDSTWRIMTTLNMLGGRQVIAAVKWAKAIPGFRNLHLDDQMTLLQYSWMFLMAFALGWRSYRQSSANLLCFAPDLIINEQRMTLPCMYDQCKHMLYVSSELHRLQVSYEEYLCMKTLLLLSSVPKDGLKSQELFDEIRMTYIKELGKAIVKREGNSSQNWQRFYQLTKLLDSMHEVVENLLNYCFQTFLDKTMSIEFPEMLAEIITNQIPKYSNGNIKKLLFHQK
Nature of the assay: Glucocorticoid Receptor Binding Assay (I), fluorescence polarization, Fluormone GS Red. The arrangement: purified human recombinant full-length glucocorticoid receptor; purchased Invitrogen Part #2893. The gist of the method: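 Fluorescence polarization competition: 2 nM purified full-length recombinant receptor with 1 nM Fluormone GS Red tracer, ±test compound over 8.5E-05 to 5 μM. Incubation was 2 h at room temperature in the dark before reading FP.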
On the technique in general: In fluorescence polarisation assays a small probe gives low polarisation when free and higher when bound to something large.

The target in assay [2] is T1, human full-length glucocorticoid receptor. Put plainly: Glucocorticoid Receptor Binding Assay (II), fluorescence polarization, FITC-dexamethasone. Further details: recombinantly expressed human full-length glucocorticoid receptor; purchased PanVera Co., Madison P2816. As for the experimental part:
Glucocorticoid Receptor Binding Assay (II)^b
In order to measure the binding of compounds on the glucocorticoid receptor a commercially available kit was used (Glucocorticoid receptor competitor assay kit, PanVera Co., Madison, W1, P2816). Briefly, a cell lysate containing recombinantly expressed human full-length glucocorticoid receptor was mixed with a fluorescently labeled glucocorticoid (4 nM FITC-dexamethasone) plus or minus test molecule. After one hour at room temperature, the fluorescence polarization (FP) of the samples were measured. […] Test molecules were analyzed in the concentration range from 0.1 nM to 40 μM.

[3] abbreviates: GR Binding Assay (I), read-out: GR (Ki, nM) (GR Binding Assay (I)).
The mark [4] stands for this setting: GR Binding Assay (II), read-out: GR (Ki, nM) (GR Binding Assay (II)).

With `Cc1cccc(-c2ccc3c(n2)Oc2ccccc2[C@@H]3C(C)(C)C(=O)Nc2nncs2)c1` [Example 179], the Ki in assay [1] was 64.6 nM; in assay [2], 37.9 nM.

`CC(C)(C(=O)Nc1nncs1)[C@H]1c2ccccc2Oc2nc(-c3ccc(C#N)cc3)ccc21` [Example 203]: the values for the Ki in assay [1] (setting [3]) and in assay [2] (setting [4]) were 4.61 nM and 13.1 nM, respectively.

With `CC(C)(C(=O)Nc1nncs1)[C@H]1c2ccccc2Oc2nc(-c3cccnc3)ccc21` [Example 187], the inhibition constant (Ki) in assay [1] (setting [3]) turned out to be 33.1 nM; in assay [2] (setting [4]), 34.4 nM.

Regarding `CC(C)(C(=O)Nc1nncs1)[C@H]1c2ccccc2Oc2nc(-c3ccc4ccccc4c3)ccc21` [Example 186], the Ki was found to be 386 nM in assay [1] (setting [3]) and 84.6 nM in assay [2] (setting [4]).

For the compound `COC(=O)c1ccc(-c2ccc3c(n2)Oc2ccccc2[C@@H]3C(C)(C)C(=O)Nc2nncs2)cc1` [Example 192], the figures for the Ki in assay [1] (setting [3]) and in assay [2] (setting [4]) were 12.3 nM and 13.1 nM, respectively.

In the case of `CC(C)(C(=O)Nc1nncs1)[C@H]1c2ccccc2Oc2nc(-c3ccccc3)ccc21` [Example 171], the Ki in assay [1] was determined as 7.15 nM; in assay [2] (setting [4]), 10.2 nM.

With `CC(C)(C(=O)Nc1nccs1)C1c2ccccc2-c2ccc(O)cc21` (stereo not shown) [Example 22], in assay [2] (setting [4]), the Ki was determined as 1640 nM.

In the case of `C[C@@H](Nc1ccc2c(n1)Oc1ccccc1[C@@H]2C(C)(C)C(=O)Nc1nncs1)c1ccccc1` [Example 143], the Ki in assay [2] (setting [4]) is 744 nM.

In the case of `CCOC(=O)c1csc(NC(=O)C(C)(C)C2c3ccccc3Oc3cc(OC)ccc32)n1` (stereo not shown) [Example 48], in assay [2] (setting [4]), the Ki was found to be 60.9 nM.

`CC1CCCN(c2ccc3c(n2)Oc2ccccc2[C@@H]3C(C)(C)C(=O)Nc2nncs2)C1` (stereo partly shown) [Example 150]: the Ki in assay [2] (setting [4]) was 26.9 nM.

For the compound `CC(C)(C(=O)Nc1nccs1)C1c2ccccc2Oc2ncccc21` (stereo not shown) [Example 67], the Ki in assay [2] (setting [4]) is 107 nM.

For `CC(C)(C(=O)Nc1nncs1)[C@H]1c2ccccc2Oc2nc(-c3ccc(Cl)cc3)ccc21` [Example 178], the Ki in assay [1] (setting [3]) was 10.6 nM; in assay [2] (setting [4]), 4.7 nM.

With `CC(C)(C(=O)Nc1nncs1)C1c2ccccc2Oc2ccccc21` [Example 39], the Ki in assay [2] (setting [4]) was 39.7 nM.

Take `CC(C)(C(=O)Nc1ncns1)C1c2ccccc2Oc2ncccc21` (stereo not shown) [Example 66]: the Ki in assay [2] (setting [4]) is 665 nM.

On to `CNc1ccc2c(n1)Oc1ccccc1C2C(C)(C)C(=O)Nc1nccs1` (stereo not shown) [Example 127], for which, in assay [2] (setting [4]), the Ki came to 29.7 nM.

As to `COc1ccc2c(c1)Oc1ccccc1[C@@H]2C(C)(C)C(=O)Nc1ncc[nH]1` [Example 61], the Ki in assay [2] (setting [4]) stood at 909 nM.

`Cc1csc(NC(=O)C(C)(C)C2c3ccccc3Oc3ncccc32)n1` (stereo not shown) [Example 70]: the Ki in assay [2] (setting [4]) is 762 nM.

On to `CC(C)(C(=O)Nc1nncs1)[C@@H]1c2ccccc2Oc2nc(N3CCCC3)ccc21` [Example 137], for which the Ki in assay [2] (setting [4]) is 221 nM.

For the compound `CC(C)(C(=O)Nc1nncs1)[C@H]1c2ccccc2Oc2nc(-c3cccc4ccccc34)ccc21` [Example 177], the Ki in assay [1] (setting [3]) is more than 1150 nM; in assay [2] (setting [4]), 460 nM.

As to `Cc1nc(NC(=O)C(C)(C)[C@H]2c3ccccc3Oc3cc(O)ccc32)sc1C` [Example 86], the Ki in assay [2] (setting [4]) came to 32.9 nM.

As for `CC(C)(C(=O)Nc1nccs1)[C@H]1c2ccccc2Oc2nc(N3CCCCC3)ccc21` [Example 148], the Ki in assay [2] (setting [4]) is 11.1 nM.

`CC(C)(C(=O)Nc1nccs1)C1c2ccccc2Sc2ccccc21` [Example 9]: in assay [2] (setting [4]), the Ki is 154 nM.

Take `COCCOCOc1ccc2c(c1)Oc1ccccc1C2C(C)(C)C(=O)Nc1nccs1` (stereo not shown) [Example 98]: the Ki in assay [2] (setting [4]) was 88.7 nM.

For the compound `CC(C)(C(=O)Nc1nncs1)[C@@H]1c2ccccc2Oc2nc(N3CCC4(CC3)OCCO4)ccc21` [Example 135], the Ki in assay [2] (setting [4]) came to 537 nM.

`CCOC(=O)c1csc(NC(=O)C(C)(C)C2c3ccccc3Oc3cc(O)ccc32)n1` (stereo not shown) [Example 96]: in assay [2] (setting [4]), the Ki amounted to 22.1 nM.

Consider `CC(C)(C(=O)Nc1nccs1)C1c2ccccc2CCc2ccccc21` [Example 25], for which the Ki in assay [2] (setting [4]) is 41.1 nM.

For the compound `CCOC(=O)c1csc(NC(=O)C(C)(C)C2c3ccccc3Oc3ncccc32)n1` (stereo not shown) [Example 68], the Ki in assay [2] (setting [4]) was 820 nM.

`CC(C)(C(=O)Nc1nc(Cc2ccccc2)cs1)C1c2ccccc2Oc2ccccc21` [Example 36]: the inhibition constant Ki in assay [2] (setting [4]) was determined as 1040 nM.

Take `Cc1nc(NC(=O)C(C)(C)[C@@H]2c3ccccc3Oc3cc(O)ccc32)sc1C` [Example 91]: the inhibitory constant (Ki) in assay [2] (setting [4]) was found to be 2550 nM.
